Data set [1] relates to in vitro platelet-rich thrombi. The data set is described as follows: Magnetic resonance imaging of in vitro platelet-rich thrombi. In kind it is cell-based, human. Conditions: 20 min incubation, washed three times, 1.5 T 3D TSE. On the procedure:
Magnetic resonance imaging of in vitro platelet-rich thrombi and incubation solution (example 1) using a 3D turbo spin echo sequence (1.5 T, Siemens Avanto, small extremity coil, TR 1050 ms, TE 9.1 ms, 0.5×0.5×0.6 mm^3). In FIG. 2a an in vitro control thrombus without the addition of a contrast agent is shown. The signal intensity of the control thrombus is slightly higher than the surrounding medium but clearly lower than the signal of the in vitro thrombus which was incubated with Example 1 as depicted in FIG. 2b. In FIG. 2c the incubation solution with a final concentration of 10 μmol substance/L of example 1 in human plasma is represented. The signal intensity is higher than the surrounding plasma solutions in the in vitro platelet-rich thrombi 2a and 2b.
The in vitro thrombus in FIG. 2b is incubated with the solution which is depicted in FIG. 2c. After 20 min incubation period the thrombi was washed three times with plasma solution.
Magnetic resonance imaging of in vitro platelet-rich thrombi and incubation solution (Example 1) using a 3D turbo spin echo sequence (1.5 T, Siemens Avanto, small extremity coil, TR 1050 ms, TE 9.1 ms, 0.5×0.5×0.6 mm^3). In FIG. 3a an in vitro control thrombus without the addition of a contrast agent is shown. […]

For data set [2], the target named is human GPIIb/IIIa receptor (Homo sapiens, UniProt P05106+P08514). The data set is described as follows: biochemical.
Chain of human GPIIb/IIIa receptor (P08514 32-887 limits assumed): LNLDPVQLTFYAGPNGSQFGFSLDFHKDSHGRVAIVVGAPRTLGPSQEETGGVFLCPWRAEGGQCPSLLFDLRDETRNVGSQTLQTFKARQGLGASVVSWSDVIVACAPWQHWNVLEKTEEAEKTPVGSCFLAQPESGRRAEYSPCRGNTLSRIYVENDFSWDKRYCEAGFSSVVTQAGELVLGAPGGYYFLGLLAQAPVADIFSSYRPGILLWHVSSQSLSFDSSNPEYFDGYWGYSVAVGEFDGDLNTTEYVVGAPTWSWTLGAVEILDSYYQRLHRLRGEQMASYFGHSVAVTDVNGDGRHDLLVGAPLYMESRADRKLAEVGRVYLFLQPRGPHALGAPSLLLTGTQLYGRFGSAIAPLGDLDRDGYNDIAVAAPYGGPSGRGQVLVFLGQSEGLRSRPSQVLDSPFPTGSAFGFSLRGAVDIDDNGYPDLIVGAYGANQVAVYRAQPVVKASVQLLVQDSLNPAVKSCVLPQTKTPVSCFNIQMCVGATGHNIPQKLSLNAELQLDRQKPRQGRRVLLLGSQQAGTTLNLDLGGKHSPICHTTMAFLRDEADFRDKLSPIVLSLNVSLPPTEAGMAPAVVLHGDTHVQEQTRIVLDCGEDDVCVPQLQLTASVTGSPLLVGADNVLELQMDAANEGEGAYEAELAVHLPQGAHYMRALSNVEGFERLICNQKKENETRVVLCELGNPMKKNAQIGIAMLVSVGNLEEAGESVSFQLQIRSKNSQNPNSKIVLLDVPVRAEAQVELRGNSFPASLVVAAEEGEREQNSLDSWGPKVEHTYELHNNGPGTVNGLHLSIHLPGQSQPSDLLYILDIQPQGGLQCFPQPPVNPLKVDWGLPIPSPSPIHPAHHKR
Chain of human GPIIb/IIIa receptor (P05106 27-788): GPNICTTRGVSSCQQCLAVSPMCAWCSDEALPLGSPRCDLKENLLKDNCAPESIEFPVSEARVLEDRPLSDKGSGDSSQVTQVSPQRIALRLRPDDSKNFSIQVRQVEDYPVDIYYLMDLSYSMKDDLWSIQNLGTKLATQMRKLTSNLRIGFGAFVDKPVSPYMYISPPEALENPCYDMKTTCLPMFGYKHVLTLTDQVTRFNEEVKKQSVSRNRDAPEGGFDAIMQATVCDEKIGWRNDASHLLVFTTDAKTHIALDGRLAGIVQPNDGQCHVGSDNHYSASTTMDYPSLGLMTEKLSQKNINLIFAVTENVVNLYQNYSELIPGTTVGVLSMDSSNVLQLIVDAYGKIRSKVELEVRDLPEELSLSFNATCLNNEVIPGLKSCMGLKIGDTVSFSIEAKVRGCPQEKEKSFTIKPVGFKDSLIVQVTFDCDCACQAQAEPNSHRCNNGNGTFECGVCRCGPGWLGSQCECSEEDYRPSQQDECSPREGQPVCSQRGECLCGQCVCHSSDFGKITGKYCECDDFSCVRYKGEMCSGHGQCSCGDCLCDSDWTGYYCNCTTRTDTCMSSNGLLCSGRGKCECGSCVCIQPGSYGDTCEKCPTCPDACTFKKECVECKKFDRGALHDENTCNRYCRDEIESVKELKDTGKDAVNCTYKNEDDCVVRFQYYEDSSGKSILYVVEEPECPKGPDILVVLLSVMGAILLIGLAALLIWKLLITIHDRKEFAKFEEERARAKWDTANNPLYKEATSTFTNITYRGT
Experimental: Affinity assay: In the first step human GPIIb/IIIa purified from human platelets was immobilized on a 96-well solid plate. After 48 hours the plates were washed and the unspecific binding sites were blocked with Roti®-Block. […] In the next step, the plates were simultaneously incubated with a tritium labeled known GPIIb/IIIa binder (^3H) mixed with increasing concentrations of the novel compounds (inhibitor). […] The fraction of tritiated compound (^3H), which is not displaced by inhibitor, was measured in a microplate scintillation counter. […]
The maximum value of tritiated reference compound was determined without addition of inhibitor (n=8). […]
After one hour the plate was washed three times with phosphate-buffered saline (200 μL per well, Dulbecco's Phosphate Buffered Saline (D-PBS (+)), GIBCO®, Invitrogen). […] After 15 min at room temperature the plates were measured at the microplate scintillation counter (TopCount NXT v2.13, Perkin Elmer, Packard Instrument Company).
In the first step human glycoprotein IIb/IIIa, which is purified from human platelets, was immobilized on a 96-well solid plate. […] The fraction of tritiated reference compound, which is not displaced by inhibitor, was measured at a microplate scintillation counter. […] By means of this assay the affinities (1050 values) could be determined.
The test system of data set [3] is thrombus. Conditions: 40 min after last injection; for Gadolinium concentration: 4 repeated doses of 1 μM Gadolinium/kg bw i.v.; for thrombus/blood ratio: total dose 4 μM Gadolinium/kg bw. On the procedure: The specific binding of the compound described in Example 1 was investigated in cynomolgus monkey (female 3.0 kg bodyweight).
The monkey was anesthetized with a mixture of Xylazin (Rompun®, Bayer HealthCare, Leverkusen, Germany), 0.12 mL/Kg and Ketamine (Ketavet®, Pfizer) 0.12 mL/Kg b.w. i.m. While the investigation, small amounts of Xylazin/Ketamine (1+1) have been injected i.m. if required. The left common carotid artery was exposed 10 min with iron-III-chloride solution (10%). Following thrombus induction the monkey received 1 μmol Gadolinium/kg bodyweight (equals 0.125 μmol molecule/kg bodyweight) i.v. Afterwards, the right carotid artery was exposed 8 min with iron-III-chloride solution (10%) and the monkey received a repeated dose of 1 μmol Gadolinium/kg bodyweight iv.
After the first two contrast media applications the right carotid artery was exposed surgically and a polyethylene-tube ([…] Polyethylene Tubing, Clay Adams, PE50), which was roughened previously by sandpaper (600—CAMI Grit designation), was inserted into the vessel, advanced into the descending aorta and was left there for 30 minutes to allow for the development of a thrombus on the rough surface of the tube. The monkey received 1 μmol Gadolinium/kg bodyweight (equals 0.125 μmol molecule/kg bodyweight) i.v. 30 min and 90 min post catheterization. 40 min after the last contrast media application the animal was sacrificed using Pentobarbital (Narcoren). The gadolinium concentrations in blood, thombus of the left and right carotis, right carotis, left carotis, jugular vein and aorta were determined using an inductively coupled plasma mass spectrometry (ICP-MS Agilent 7500a).

Data set [4] relates to human activated platelets. Nature of the data set: Binding of compounds to human activated platelets (Gd by ICP-MS in pellet and supernatant). In kind it is cell-based. Here is the method: For each experiment fresh blood was taken from a volunteer using 10 mL citrate-tubes (Sarstedt S-Monovette 02.1067.001, 10 mL, Citrate 3.13%). The 10 mL citrate-tubes were carefully inverted 10 times to mix blood and anticoagulant. The tubes were stored in an incubator at a temperature of 37° C. until centrifugation (Heraeus miniTherm CTT with integrated rotation- and turning device, turning speed: 19 rotations per minute, Heraeus Instruments GmbH, Hanau/Germany).
For plasma preparation tube centrifugation was carried out for 15 minutes at 1811 g at room temperature (Eppendorf, Centrifuge 5810R). To produce platelet-rich plasma blood was centrifuged 15 minutes at 201 g at room temperature. The tubes were stood for 30 min at room temperature to get a better separation. The separated platelet-rich plasma was finally centrifuged for further 3 min at 453 g to remove the remaining erythrocytes. The platelet-rich plasma was activated using a final concentration of 5 μM Adenosindiphosphate (ADP, Sigma). The activated platelet-rich plasma was incubated 20 minutes […] with different concentrations of gadolinium-labeled compound and subsequently was centrifuged 3 minutes at 1360 g. 20 μL of supernatant was taken to determine the concentration (n=3). The pellet was resuspended and washed two times with at least 750 μL plasma and subsequently was redispered in 750 μL plasma and 50 μL calciumchloride (50 μL 2%).

[5] abbreviates: incubation concentration 1 μM molecule, incubation time 3 min.
Where [6] appears, read: incubation concentration 1 μM molecule, incubation time 20 min.
The mark [7] stands for this setting: incubation concentration 10 μM molecule, incubation time 20 min.

Read-outs that look alike come from different tables or passages of the source.

In the case of `CC(C(=O)NCC(=O)NCC(NC(=O)CNC(=O)C(C)N1CCN(CC(=O)O)CCN(CC(=O)O)CCN(CC(=O)O)CC1)C(=O)NCC(NC(=O)C(CNC(=O)CNC(=O)C(C)N1CCN(CC(=O)O)CCN(CC(=O)O)CCN(CC(=O)O)CC1)NC(=O)CNC(=O)C(C)N1CCN(CC(=O)O)CCN(CC(=O)O)CCN(CC(=O)O)CC1)C(=O)NCC(NC(=O)C(CNC(=O)C(CNC(=O)CNC(=O)C(C)N1CCN(CC(=O)O)CCN(CC(=O)O)CCN(CC(=O)O)CC1)NC(=O)CNC(=O)C(C)N1CCN(CC(=O)O)CCN(CC(=O)O)CCN(CC(=O)O)CC1)NC(=O)C(CNC(=O)CNC(=O)C(C)N1CCN(CC(=O)O)CCN(CC(=O)O)CCN(CC(=O)O)CC1)NC(=O)CNC(=O)C(C)N1CCN(CC(=O)O)CCN(CC(=O)O)CCN(CC(=O)O)CC1)C(=O)NCCCCc1cccc(C#Cc2cncc([C@H](CC(=O)O)NC(=O)[C@@H]3CCCN(C(=O)CCC4CCNCC4)C3)c2)c1)N1CCN(CC(=O)O)CCN(CC(=O)O)CCN(CC(=O)O)CC1` (stereo partly drawn) [Example 1, Octagadolinium 2,3-bis-{[2,3-bis({2,3-bis[(N-{2-[4,7,10-tris(carboxylatomethyl)-1,4,7,10-tetraazacyclododecan-1-yl]propanoyl}glycyl)amino]propanoyl}amino)propanoyl]amino}-N-(4-{3-[(5-{(1S)-2-carboxy-1-[({(3R)-1-[3-(piperidin-4-yl)propanoyl]piperidin-3-yl}carbonyl)amino]ethyl}pyridin-3-yl)ethynyl]phenyl}butyl)propanamide], the “MRI signal intensity of incubated in vitro thrombus versus control thrombus” value in data set [1] (0.1 μmol substance/L (0.8 μmol Gd/L) in human plasma) and in data set [1] (10 μmol substance/L in human plasma) was “clearly higher signal than the control thrombi” each time. This molecule also registered an IC50 in data set [2] of 40 nM. In addition, the Gadolinium concentration is reported as 3.3 ± 0.7 (n = 5) μM Gd in data set [3] (blood); 9.4 ± 0.4 (n = 4) μM Gd in data set [3] (left carotis); 4.3 ± 0.7 (n = 4) μM Gd in data set [3] (right carotis); 4.0 μM Gd in data set [3] (right jugular vein); 29.3 μM Gd in data set [3] (thrombus left carotis); 41.0 μM Gd in data set [3] (thrombus right carotis). The thrombus/blood ratio in data set [3] (thrombus left carotis) is given as 8.9; in data set [3] (thrombus right carotis) it was 12.4. Further, the “Concentration within platelet pellet” value is 28.2 ± 1.8 μM Gd in data set [4] (incubation concentration 0.1 μM molecule, incubation time 20 min); 32.7 ± 7.8 μM Gd in data set [4] (setting [5]); 28.8 ± 2.2 μM Gd in data set [4] (setting [6]); 35.9 ± 1.6 μM Gd in data set [4] (setting [7]). Besides, the pellet/supernatant in data set [4] (setting [5]) is given as 131 ± 36; in data set [4] (setting [6]), 108 ± 18; in data set [4] (setting [7]) it was 81 ± 5.

In general, IC50 refers to the midpoint of a concentration-inhibition curve.

The values above are taken from US20170008876A1, “Metal Chelate Compounds for Binding to the Platelet Specific Glycoprotein IIb/IIIa” (BAYER PHARMA AKTIENGESELLSCHAFT, priority 2014, published 2017).
